± gives the standard deviation of the averaged measurements.
Legend:
Assay in all cases: relative viability vs DMSO control (72 h) (fraction); higher = more viable cells
A204 = system: A204
How it was run: (§1)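 Relative viability was measured with ATPLite and expressed as percent growth, averaged across up to triplicate wells. Sarcoma cell lines had been seeded in 384-well plates to reach 80–90% confluence, dosed after 24 h, and incubated 72 h at 37 °C, 5% CO2. All data were rescaled on a scale where 1 is full and 0 is none.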

HS729 = system: HS729
How it was run: as §1

KHOS-240S = system: KHOS-240S
How it was run: as §1

RD = system: RD
How it was run: as §1

SK-ES-1 = system: SK-ES-1
How it was run: as §1

SW982 = system: SW982
How it was run: as §1

SK-LMS-1 = system: SK-LMS-1
How it was run: as §1

SW872 = system: SW872
How it was run: as §1

SW1353 = system: SW1353
How it was run: as §1

G401 = system: G401
How it was run: as §1

MES-SA = system: MES-SA
How it was run: as §1

VA-ES-BJ = system: VA-ES-BJ
How it was run: as §1

CNC(=O)c1cccc2cc(Oc3ccnc4cc(OCC5(N)CC5)c(OC)cc34)ccc12 [Lucitanib]
Conditions | relative viability
A204, 0.00017 µM | 1.04 ± 0.045
A204, 0.00051 µM | 1.07 ± 0.038
A204, 0.00152 µM | 1.04 ± 0.091
A204, 0.00457 µM | 1.01 ± 0.081
A204, 0.01372 µM | 0.859 ± 0.093
A204, 0.04115 µM | 0.584 ± 0.054
A204, 0.1235 µM | 0.421 ± 0.021
A204, 0.3704 µM | 0.391 ± 0.034
A204, 1.111 µM | 0.265 ± 0.0055
A204, 3.333 µM | 0.172 ± 0.011
A204, 10 µM | 0.153 ± 0.014
G401, 0.00017 µM | 1.07 ± 0.04
G401, 0.00051 µM | 1.04 ± 0.018
G401, 0.00152 µM | 1.02 ± 0.025
G401, 0.00457 µM | 0.989 ± 0.048
G401, 0.01372 µM | 1 ± 0.045
G401, 0.04115 µM | 1.01 ± 0.035
G401, 0.1235 µM | 0.964 ± 0.02
G401, 0.3704 µM | 0.888 ± 0.013
G401, 1.111 µM | 0.641 ± 0.022
G401, 3.333 µM | 0.451 ± 0.012
G401, 10 µM | 0.349 ± 0.021
HS729, 0.00017 µM | 1.08 ± 0.061
HS729, 0.00051 µM | 1.07 ± 0.078
HS729, 0.00152 µM | 1.07 ± 0.085
HS729, 0.00457 µM | 1.04 ± 0.071
HS729, 0.01372 µM | 1.01 ± 0.062
HS729, 0.04115 µM | 0.983 ± 0.047
HS729, 0.1235 µM | 0.915 ± 0.065
HS729, 0.3704 µM | 0.866 ± 0.068
HS729, 1.111 µM | 0.692 ± 0.04
HS729, 3.333 µM | 0.618 ± 0.035
HS729, 10 µM | 0.568 ± 0.016
KHOS-240S, 0.00017 µM | 1.1 ± 0.053
KHOS-240S, 0.00051 µM | 1.05 ± 0.013
KHOS-240S, 0.00152 µM | 1.1 ± 0.042
KHOS-240S, 0.00457 µM | 1.06 ± 0.046
KHOS-240S, 0.01372 µM | 1.07 ± 0.016
KHOS-240S, 0.04115 µM | 1.05 ± 0.033
KHOS-240S, 0.1235 µM | 1.02 ± 0.023
KHOS-240S, 0.3704 µM | 0.946 ± 0.023
KHOS-240S, 1.111 µM | 0.817 ± 0.039
KHOS-240S, 3.333 µM | 0.771 ± 0.013
KHOS-240S, 10 µM | 0.632 ± 0.012
MES-SA, 0.00017 µM | 0.983 ± 0.026
MES-SA, 0.00051 µM | 0.976 ± 0.02
MES-SA, 0.00152 µM | 0.965 ± 0.024
MES-SA, 0.00457 µM | 0.957 ± 0.019
MES-SA, 0.01372 µM | 0.978 ± 0.038
MES-SA, 0.04115 µM | 0.955 ± 0.018
MES-SA, 0.1235 µM | 0.95 ± 0.029
MES-SA, 0.3704 µM | 0.961 ± 0.027
MES-SA, 1.111 µM | 0.813 ± 0.021
MES-SA, 3.333 µM | 0.615 ± 0.019
MES-SA, 10 µM | 0.265 ± 0.017
RD, 0.00017 µM | 1.08 ± 0.033
RD, 0.00051 µM | 1.12 ± 0.04
RD, 0.00152 µM | 1.1 ± 0.035
RD, 0.00457 µM | 1.13 ± 0.031
RD, 0.01372 µM | 1.09 ± 0.061
RD, 0.04115 µM | 1.129 ± 0.011
RD, 0.1235 µM | 1.13 ± 0.02
RD, 0.3704 µM | 1.142 ± 0.007
RD, 1.111 µM | 1.144 ± 0.01
RD, 3.333 µM | 1.12 ± 0.074
RD, 10 µM | 0.9078 ± 0.0037
SK-ES-1, 0.00017 µM | 1.07 ± 0.03
SK-ES-1, 0.00051 µM | 1.12 ± 0.029
SK-ES-1, 0.00152 µM | 1.09 ± 0.041
SK-ES-1, 0.00457 µM | 1.11 ± 0.039
SK-ES-1, 0.01372 µM | 1.01 ± 0.046
SK-ES-1, 0.04115 µM | 1.07 ± 0.05
SK-ES-1, 0.1235 µM | 1 ± 0.042
SK-ES-1, 0.3704 µM | 1.07 ± 0.043
SK-ES-1, 1.111 µM | 1.01 ± 0.05
SK-ES-1, 3.333 µM | 0.865 ± 0.023
SK-ES-1, 10 µM | 0.531 ± 0.036
SK-LMS-1, 0.00017 µM | 1.071 ± 0.0095
SK-LMS-1, 0.00051 µM | 1.09 ± 0.048
SK-LMS-1, 0.00152 µM | 1.056 ± 0.0026
SK-LMS-1, 0.00457 µM | 1.08 ± 0.052
SK-LMS-1, 0.01372 µM | 1.04 ± 0.05
SK-LMS-1, 0.04115 µM | 1.03 ± 0.031
SK-LMS-1, 0.1235 µM | 0.988 ± 0.013
SK-LMS-1, 0.3704 µM | 0.999 ± 0.019
SK-LMS-1, 1.111 µM | 0.958 ± 0.012
SK-LMS-1, 3.333 µM | 0.8754 ± 0.008
SK-LMS-1, 10 µM | 0.758 ± 0.0083
SW872, 0.00017 µM | 1.07 ± 0.025
SW872, 0.00051 µM | 1.08 ± 0.034
SW872, 0.00152 µM | 1.056 ± 0.0065
SW872, 0.00457 µM | 1.07 ± 0.027
SW872, 0.01372 µM | 1.07 ± 0.035
SW872, 0.04115 µM | 1.059 ± 0.0048
SW872, 0.1235 µM | 1.038 ± 0.0092
SW872, 0.3704 µM | 1.057 ± 0.0094
SW872, 1.111 µM | 1.07 ± 0.042
SW872, 3.333 µM | 1.04 ± 0.02
SW872, 10 µM | 0.961 ± 0.016
SW982, 0.00017 µM | 1.03 ± 0.012
SW982, 0.00051 µM | 1.06 ± 0.027
SW982, 0.00152 µM | 1.06 ± 0.032
SW982, 0.00457 µM | 1.049 ± 0.0021
SW982, 0.01372 µM | 1.03 ± 0.024
SW982, 0.04115 µM | 1.05 ± 0.019
SW982, 0.1235 µM | 1.03 ± 0.033
SW982, 0.3704 µM | 1.04 ± 0.031
SW982, 1.111 µM | 1.03 ± 0.011
SW982, 3.333 µM | 0.972 ± 0.052
SW982, 10 µM | 0.608 ± 0.0035
SW1353, 0.00017 µM | 1.11 ± 0.049
SW1353, 0.00051 µM | 1.06 ± 0.018
SW1353, 0.00152 µM | 1.04 ± 0.011
SW1353, 0.00457 µM | 1.067 ± 0.0041
SW1353, 0.01372 µM | 1.03 ± 0.024
SW1353, 0.04115 µM | 0.967 ± 0.043
SW1353, 0.1235 µM | 0.938 ± 0.011
SW1353, 0.3704 µM | 0.909 ± 0.011
SW1353, 1.111 µM | 0.8515 ± 0.0058
SW1353, 3.333 µM | 0.862 ± 0.014
SW1353, 10 µM | 0.874 ± 0.058
VA-ES-BJ, 0.00017 µM | 1.08 ± 0.021
VA-ES-BJ, 0.00051 µM | 1.07 ± 0.043
VA-ES-BJ, 0.00152 µM | 1.09 ± 0.011
VA-ES-BJ, 0.00457 µM | 1.091 ± 0.0078
VA-ES-BJ, 0.01372 µM | 1.1 ± 0.024
VA-ES-BJ, 0.04115 µM | 1.11 ± 0.048
VA-ES-BJ, 0.1235 µM | 1.12 ± 0.031
VA-ES-BJ, 0.3704 µM | 1.13 ± 0.053
VA-ES-BJ, 1.111 µM | 1.16 ± 0.058
VA-ES-BJ, 3.333 µM | 1.14 ± 0.086
VA-ES-BJ, 10 µM | 0.914 ± 0.039

Source: the supplement of paper PMC10883282
